Results on five molecules are retold here after patent publication US20090325931A1, “USE OF CDK INHIBITORS FOR THE TREATMENT OF GRANULOCYTE MEDIATED DISORDERS” (University Court of the University of Edinburgh, priority 2006, published 2009).

Data set [1] deals with human neutrophils. In words: Human neutrophil apoptosis (annexin-V-FITC binding, confirmed by morphology). In kind it is cell-based. To be noted: for rate of apoptosis, time course study: after 8 h, NG75 10 μM, HD 10 μM; for rate of constitutive apoptosis: increasing concentrations, over 20 h; for rates of apoptosis assessed by annexin V binding: stereoisomers at 20 μM, after 6 h, mean±s.e.m., n=4 donors, control 12.4±0.4%.

In data set [2] the test system is human neutrophils. In words: Reversal of dbcAMP, GMCSF and LPS mediated survival of neutrophils. To be noted: 30 min pre-incubation with survival factor, then 20 h. The data set is classed as cell-based. As for the experimental part:
At least 500 cells were counted per slide and the percentage apoptosis calculated. Apoptosis and loss of membrane integrity was also assessed by flow cytometry using human recombinant annexin-V-FITC (Roche, UK) to measure phosphatidylserine (PS) exposure, in combination with propidium iodide (Sigma). Stock annexin-V-FITC was diluted at 1:500 in annexin-V binding buffer (500 ml Hanks Balanced Salt Solution containing […]) and was added at a volume of 280 μl to 5×10^4 cells, and then incubated on ice for 10 min. 1 μl of PI (stock 1 mg/ml) was added to the samples shortly before analysis using the EPICS XL2 flow cytometer (Beckman Coulter, High Wycombe, UK). Where apoptosis data are presented as annexin-V binding, apoptosis was also confirmed by morphological assessment.
Since CDK inhibitors were able to accelerate apoptosis, the inventors investigated whether these compounds could also reverse the effects of agents known to delay apoptosis through different signaling pathways (Riley, N. A. et al. Anti-inflammatory & Anti-Allergy Agents in Medicinal Chemistry 5, 3-12 (2006)). […] Lipopolysaccharide (LPS) binds to Toll-like receptor (TLR)4, that interacts with CD14 eventually leading to mitogen-activation kinases (MAPK), PI3K and/or NF-κB signaling to inhibit apoptosis. […] Apoptosis was assessed by annexin-V-FITC, and checked by morphology.

The subject of a further data set is tumor. The conditions noted are these: cited from earlier work.
For data set [3], the system named is carrageenan-induced pleural inflammation. In words: Carrageenan-induced pleurisy. The data set is classed as in vivo, C57BL/6J mice.
The next data set relates to Mcl-1. In words: Mcl-1 protein expression in neutrophils (western blot). The data set is classed as cell-based, human. On the technique in general: A western blot detects proteins with antibodies after separation by electrophoresis.
In another data set the test system is caspase-3. In words: Caspase-3 cleavage in neutrophils (western blot). The conditions noted are these: 20 μM, 4 h.
Another data set deals with serum induced arthritis. In words: Passively-induced (K/BxN serum) arthritis. In kind it is in vivo, C57BL/6J mice. The conditions noted are these: 10 mg/kg i.p. on days 3-19 every second day. As for the experimental part:
Sera (100 μl) extracted from 60 day old arthritic K/B×N mice was injected intra-peritoneally into 6-8 week old female C57BL/6J mice (B&K, Hull, UK). Arthritis was scored by clinical examination. Briefly, a score of 1 was given for erythema alone or swelling of 1 digit. A score of 2 resulted from erythema plus swelling of the tarsal joints or swelling of the hock or wrist joint alone. A maximum score of 3 was achieved when swelling was present in both tarsal and hock joints, or both wrist and digits, or more than 2 digits and the tarsal joints. The score for each limb was added giving a maximum score of 12 and the mean score reflects the total score divided by the number of recipient mice per group.
Mice (n=10 in each group) were injected twice (days 0 and 3) with K/B×N serum derived from arthritic (day 60) K/B×N transgenic mice. Clinical scores were assessed on the days indicated.

Where [4] appears, read: 10 or 100 mg/Kg i.p., 36 h post-carrageenan.
Setting [5] is: zVAD-fmk 1 μg/Kg i.p. at 4 h intervals.
[6] abbreviates: zVAD-fmk 1 μg/Kg i.p. at 4 h intervals, R-roscovitine 10 mg/Kg.

`COc1ccc(CNc2nc(N[C@@H](CO)C(C)C)nc3c2ncn3C(C)C)cc1` [NG75, 2-(1R-isopropyl-2-hydroxyethylamino)-6-(4-methoxy-benzylamino)-9-isopropylpurine]: in the data set with human neutrophils [1] (20 h treatment), the “annexin-V/PI positive cell populations (secondary necrosis)” value is reported as “increased number”. In addition, in the data set with human neutrophils [1] (R-roscovitine 20 μM), the “rate of apoptosis, time course study” value is “increased the rate of apoptosis dramatically”. Also, in the data set with human neutrophils [1] (after 8 h of treatment), the “annexin V positive cells” value is on record as “marked increase”. Moreover, the “rate of constitutive apoptosis” value with human neutrophils [1] is reported as “significantly increased”.
As to `CC[C@H](CO)Nc1nc(NCc2ccccc2)c2ncn(C(C)C)c2n1` [R-roscovitine, (R)-2-[{9-(1-methylethyl)-6-[(phenylmethyl)amino]-9H-purin-2-yl]amino}-1-butanol], in the data set with human neutrophils [2], the “effect on survival signals (dbcAMP, GMCSF, LPS delayed apoptosis)” value was “clearly is dominant over survival factor mediated effects”. In addition, the tolerability entry with tumor (even with high doses of 2 g/kg) was “well tolerated”. Besides, in the data set with tumor (systemic administration), the tumor size entry is “specific reduction in tumor size”. Further, the “inhibition of total inflammatory cell number compared with vehicle control” value in data set [3] (10 mg/kg i.p. 24 h after carrageenan, 36 h post-carrageenan) was “greater than 50%”. For the same molecule, in data set [3] (10 mg/kg i.p., 36 h post-carrageenan), the “number of monocytes/macrophages and neutrophils” value is “reduction”. For the same molecule, in data set [3] (100 mg/Kg i.p., 36 h post-carrageenan), the “lung inflammation (inflammatory infiltrate in lung sections)” value is reported as “dramatically reduced”. For the same molecule, the “pleural cavity total cell numbers over seven days” value in data set [3] (100 mg/kg i.p. at 24 h, all time points examined) was “marked resolution of inflammation”. For the same molecule, the “amount of inflammatory cells in pleural cavity” value in data set [3] (100 mg/kg i.p., 36 h post-carrageenan) is on record as “near baseline levels”. For the same molecule, in data set [3] (setting [4]), the “IFN-γ in the inflammatory exudate” value is “diminished”, the “IL-6 in the inflammatory exudate” value is “diminished” and the “MCP-1 in the inflammatory exudate” value was “diminished”. Moreover, in data set [3] (36 h post-carrageenan), the “edema formation (total exudate volume), decrease compared with saline control” value is given as “three-fold”; the “inflammatory cell apoptosis and macrophages containing apoptotic bodies in the pleural cavity” value is on record as “increase”. The “effect on GM-CSF mediated up-regulation of Mcl-1” value in the data set with Mcl-1 (R-roscovitine 20 μM plus GM-CSF 50 U/ml, 4 h) is reported as “inhibits GM-CSF mediated up-regulation of Mcl-1”. Also, the “rate of apoptosis, time course study” value in the data set with human neutrophils [1] (R-roscovitine 20 μM) was “increased the rate of apoptosis dramatically”. Moreover, in the data set on human neutrophils [1], the “rate of constitutive apoptosis” value was “significantly increased” and the “rates of apoptosis assessed by annexin V binding” value came to 75.9±3.5%. For the same molecule, in the data set with caspase-3, the caspase-3 cleavage result was “results in caspase-3 cleavage”. Moreover, the “arthritis as assessed by clinical scores” value in the data set on serum induced arthritis was “dramatically resolved quicker”.
Regarding `COC(=O)C[C@H](NC(=O)[C@H](C)NC(=O)[C@@H](NC(=O)OCc1ccccc1)C(C)C)C(=O)CF` (racemic) [zVAD-fmk, z-Val-Ala-DL-Asp-fluoromethylketone], in data set [3] (setting [5]), the “edema formation compared with saline or vehicle controls” value is on record as “increasing” and the “total inflammatory cell number compared with saline or vehicle controls” value was “increasing”. Besides, in data set [3] (setting [6]), the “effect on R-roscovitine increase in inflammatory cell apoptosis and macrophages containing apoptotic bodies” value is “inhibited dramatically”; the “effect on R-roscovitine-induced decrease in inflammatory cells and edema formation” value was “prevented”. Besides, the “effect on R-roscovitine induced apoptosis” value in the data set on human neutrophils [1] (zVAD-fmk 100 μM, R-roscovitine 20 μM, 6 h) is reported as “prevented R-roscovitine induced apoptosis”.
On to “GM-CSF: pro-survival factor (R & D Systems)”, for which the “effect on fall of Mcl-1 levels in culture” value in the data set on Mcl-1 (GM-CSF 50 U/ml) was “prevented”.
`CC[C@@H](CO)Nc1nc(NCc2ccccc2)c2ncn(C(C)C)c2n1` [S-roscovitine]: in the data set on human neutrophils [1], the “rates of apoptosis assessed by annexin V binding” value is 75.6±3.3%.
